Data from patent publication US10172947B2, “Antiparasitic and/or antifungal composition comprising hydrophobised chitosan” (CENTRE NATIONAL DE LA RECHERCHE SCIENTIFIQUE (CNRS), priority 2013, dated 2019).
In brackets after ≈: the same amount, converted by molar mass.

Legend:
Type in all cases: cell-based
[1] = tested on: Leishmania major intramacrophagic amastigotes; test: In vitro evaluation on intramacrophagic amastigotes (RAW 264.7, Sybr Green); settings: 48 h of treatment
Description: (§1) The compositions 5a (PIBCA-[chitosan20/chitosan20-TBA] 100/0 m/m %) and 4 (MC3+α-cyclodextrin 1/10% m/v), described in point 3 hereinabove, have been tested in vitro on three strains of Leishmania: Leishmania major (MHOM/SU/73/5-ASKH/LEM134), Leishmania tropica (LRC-L39/LEM2563), Leishmania braziliensis (MHOM/BR/75/M2903b). The IC50 were measured then compared to the reference product amphotericin B in order to determine the anti-leishmanial activity of the nanoparticles.
(§2) The macrophages RAW 264.7 were maintained at 37° C. with 5% CO2 in DMEM medium (Dulbecco's modified Eagle's medium, Gibco, Saint-Aubin, France) supplemented with 10% of foetal calf serum, inactivated by heat (Invitrogen, Saint-Aubin, France), also called complete DMEM medium.
(§3) The evaluation of the compositions 5a and 4 on intramacrophagic amastigotes was conducted as previously described (Audisio et al., Eur. J. Med. Chem., 2012, 52, 44-50). The macrophages RAW 264.7 were added in the wells of 96-well plates at a rate of 2×10^4 cells per well and incubated for 24 h at 37° C. with 5% CO2. The axenic amastigotes were then induced as described hereinabove, centrifuged at 2000 g for 10 minutes, then resuspended in a complete DMEM medium, and added to each well at a rate of 3.2×10^5 parasites per well, in order to reach a parasite/macrophage ratio of 16:1. After 24 h of infection at 37° C. with 5% CO2, the extracellular parasites were removed and 100 μl of complete DMEM medium containing the seried dilutions of the compositions were added to each well. After 48 h of treatment, the culture medium is removed, then replaced with 100 μl of DirectPCR Lysis reagent (Euromedex, Souffelweyersheim, France), and three freezing-thawing cycles at ambient temperature are then carried out, then 50 μg/ml of proteinase K are added, and a final incubation at 55° C. for 4 hours is carried out in order to allow for the complete lysis of the cells. […] The fluorescence of the DNA was measured using the Mastercycler® realplex (Eppendorf, Montesson, France). […]

[2] = tested on: Leishmania tropica intramacrophagic amastigotes; test: as above; settings: 48 h of treatment
Description: as §1, §2, §3

[3] = tested on: Leishmania braziliensis intramacrophagic amastigotes; test: as above; settings: 48 h of treatment
Description: as §1, §2, §3

[4] = tested on: Leishmania tropica axenic amastigotes; test: In vitro evaluation on axenic amastigotes (resazurin); settings: 72 h
Description: as §1
(§4) The culture of the axenic amastigotes was carried out at 37° C. in a complete M199 medium supplemented with 200 μM CaCl2 and 200 μM MgCl2.
(§5) Axenic amastigotes were induced by incubating promastigotes in complete M199 medium supplemented with 200 μM of CaCl2 and 200 μM MgCl2 at 37° C. with 5% CO2 for 48 h. Serial two-fold dilutions of the compositions were then carried out in 100 μl of the same medium in 96-well plates. The axenic amastigotes were then added in each well at 10^6/ml in 200 μl of final. volume After 72 h of incubation at 37° C. with 5% CO2, 20 μl of resazurin at 450 μM were added in each well, then incubated in the dark for 24 h at 37° C. with 5% CO2. In living cells, resazurin is reduced in resofurin. This conversion is monitored by measuring the absorbance at specific wavelengths of the resofurin (570 nm) and of the resazurin (600 nm) by using a microplate reader (Labsystem Multisken MS). The activity of the compositions is expressed in IC50. Amphotericin B is used as a reference product.

[5] = tested on: Leishmania major axenic amastigotes; test: as above; settings: 72 h
Description: as §1, §4, §5

[6] = tested on: Leishmania braziliensis axenic amastigotes; test: as above; settings: 72 h
Description: as §1, §4, §5

[7] = tested on: Leishmania major promastigotes; test: In vitro evaluation on promastigotes (MTT); settings: 72 h
Description: as §1
(§6) The promastigote culture was carried out at 26° C. in M199 medium (Sigma, Saint-Quentin Fallavier, France) supplemented with 4.2 mM NaHCO3, 10% of foetal calf serum inactivated by heat (Invitrogen, Saint-Aubin, France), 40 mM Hepes pH 7.5, 100 μM adenosine and 20 μM haemin (complete M199 medium).
(§7) The test of the compositions on prosmatigotes was conducted as previously described (Saint-Pierre-Chazalet et al., J. Antimicrob. Chemother., 2009, 64, 993-1001). Series of dilutions were carried out in 100 μl of complete M199 medium in a 96-well plate. Promastigotes in exponential growth were then added to each well at a rate of 10^6/ml in a final volume of 200 μl. After 72 h of incubation at 26° C., the viability of the promastigotes was measured by using 250 μg/ml of MTT, or 3-(4,5-dimethylthiazol-2-yl)-2,5-diphenyl tetrazolium bromide (Sigma, Saint-Quentin Fallavier, France), which is reduced in formazan, an insoluble product, by the active mitochondria of the living cells. After 4 h of incubation at 26° C., the formazan is then solubilised by adding 100 μl of isopropanol containing 40 mM of HCl in each well, then incubating for 15 minutes under stirring. The viability of the cells was then quantified by measuring the absorbance at 570 nm using a plate reader (Labsystems Multiskan MS). The activity of the compositions is expressed in IC50. Amphotericin B is used as a reference product.

[8] = tested on: Leishmania braziliensis promastigotes; test: In vitro evaluation on promastigotes (MTT); settings: 72 h
Description: as §1, §6, §7

[9] = tested on: Leishmania tropica promastigotes; test: In vitro evaluation on promastigotes (MTT); settings: 72 h
Description: as §1, §6, §7

Trichomonas vaginalis = test: Anti Trichomonas vaginalis activity, parasite count after 24 h; settings: reference product, MTZ-sensitive strain ATCC PRA-98
Description: Trichomonas vaginalis is axenically cultivated at 35° C. in a trypticase-yeast extract-maltose medium (TYM) (Diamond L. S. et al., J. Parasitol., 1957, 43(4), 488-490) enriched with 10% of decomplemented horse serum (Gibco, France); the strain is subcultured every other day (Camuzat-Dedenis B. et al., Eur. J. Med. Chem., 2001, 36(10), 837-842).
The tubes of culture containing the fresh TYM medium enriched with 10% of horse serum alone (control 1, noted as C1) or those with the compositions tested, are inoculated with the parasite at a rate of 2×10^5 protozoa in 3 mL. The compositions tested are the compositions of PIBCA-[chitosan20/chitosan20-TBA] that have different proportions of chitosan and of thiolated chitosan, namely 100/0, 75/25, 50/50 and 25/75 m/m %. The concentrations in nanoparticles studied are 12.5, 25, 50 and 100 μg/mL.
The results are compared between (i) the nanoparticles of PIBCA/F68; (ii) the solutions comprised of mixtures of PIBCA-[chitosan20/chitosan20-TBA] having different proportions of chitosan and thiolated chitosan, namely 100/0, 75/25, 50/50 and 25/75 m/m %, (iii) the polymerisation medium (control 2, noted as C2). […]
The tubes are incubated for 24 h at 35° C. and the number of parasites per milliliter in each tube is determined microscopically with a haemocytometer (Kova® Glasstic® Slide 10, Hycor Biomedical, United States). […]

Candida albicans = test: Activity against Candida albicans, IC50 by microdilution with MTT viability test; settings: 24 h at 35° C., molecule alone
Description: The inoculum is prepared by sampling 5 colonies obtained after 24 h of culture on Sabouraud agar medium, each one of at least 1 mm in diameter, and by putting them in suspension in 5 mL of sterile NaCl (0.85%). The turbidity of each suspension is evaluated by measuring the optical density at a wavelength of 530 nm then adjusted with a sterile isotonic solution so as to obtain an absorbance equivalent to that obtained with the turbidimetric standard (Mac Farland 0.5).
This protocol leads to the obtaining of a suspension of which the concentration is between 1×10^6 and 5×10^6 CFU/mL. […]
Measuring the growth of yeasts is carried out by a standard colorimetric technique that makes use of tetrazolium salt MTT (5 mg/mL) (3-(4,5-dimethylthiazol-2-yl)-2,5-diphenyl tetrazolium bromide) with menadione (vitamin K). […] The quantity of precipitate formed is proportional to the quantity of living cells and to the metabolic activity of each cell. It is sufficient therefore after the incubation of the cells with MTT for 1 h at 37° C., to add an agent solubilising the crystals of formazan, to centrifuge the 96-well plates, and to read the optical density of the supernatant. A simple dosage of the optical density at 570 nm by spectroscopy makes it possible to know the relative quantity of living cells. […]

`C[C@@H]1[C@H](O)[C@@H](C)/C=C/C=C/C=C/C=C/C=C/C=C/C=C/[C@H](O[C@@H]2O[C@H](C)[C@@H](O)[C@H](N)[C@@H]2O)C[C@@H]2O[C@](O)(C[C@@H](O)C[C@@H](O)[C@H](O)CC[C@@H](O)C[C@@H](O)CC(=O)O[C@H]1C)C[C@H](O)[C@H]2C(=O)O` [Amphotericin B-DOC, Amphotericin B] was tested, and the “IC50 (ng/μl) ± SEM” value [1] was 0.49 ± 0.13 ng/µL (≈ 0.53 µM), the “IC50 (ng/μl) ± SEM” value [2] was 0.51 ± 0.07 ng/µL (≈ 0.552 µM) and the “IC50 (ng/μl) ± SEM” value [3] was 0.29 ± 0.09 ng/µL (≈ 0.314 µM). For the same compound, the “IC50 (ng/μl) ± SEM” value [4] was 0.049 ± 0.01 ng/µL (≈ 0.053 µM), the “IC50 (ng/μl) ± SEM” value [5] was 0.038 ± 0.002 ng/µL (≈ 0.0411 µM) and the “IC50 (ng/μl) ± SEM” value [6] was 0.055 ± 0.014 ng/µL (≈ 0.0595 µM). The “IC50 (ng/μl) ± SEM” value [7] was 0.015 ± 0.004 ng/µL (≈ 0.0162 µM), the “IC50 (ng/μl) ± SEM” value [8] was 0.022 ± 0.005 ng/µL (≈ 0.0238 µM) and the “IC50 (ng/μl) ± SEM” value [9] was 0.023 ± 0.002 ng/µL (≈ 0.0249 µM).

In the case of `Cc1ncc([N+](=O)[O-])n1CCO` [MTZ, metronidazole], the “lethal concentration against Trichomonas vaginalis” value (Trichomonas vaginalis) was 7 µg/mL.

With `N=C(NCCCCCCNC(=N)NC(=N)Nc1ccc(Cl)cc1)NC(=N)Nc1ccc(Cl)cc1.O=C(O)[C@H](O)[C@@H](O)[C@H](O)[C@H](O)CO.O=C(O)[C@H](O)[C@@H](O)[C@H](O)[C@H](O)CO` [chlorhexidine digluconate] the “IC50 against Candida albicans” value (Candida albicans) was 0.00068%.
